Assay results taken from patent US9598426B2, “Organic compounds” (INTRA-CELLULAR THERAPIES, INC., priority 2013, dated 2017).

What was measured:
rats = assay: Novel Object Recognition (NOR) assay; type: in vivo; settings: PO, administered to a rat 2 hours before T1 (acquisition); 24 h interval
Excerpt: Novel Object Recognition Assay
To measure the cognition-enhancing effects of the compounds of the invention, the candidate compounds may be evaluated in a Novel Object Recognition (NOR) assay. This assay protocol is described in detail in Ennaceur et al., Behav. Brain Res. (1988) 31:47-59 and Prickaerts et al., Eur. J. Pharmacol. (1997) 337:125-136, the contents of each of which are incorporated by reference in their entirety. In this protocol, the rats are introduced to a chamber at time T1 and allowed to interrogate two identical “familiar objects” for six minutes. Twenty-four hours later, they are re-introduced to this chamber, where one of the familiar objects has been replaced with a novel object. The “discrimination index”, a measure of the time spent in close proximity to the novel over the familiar object, may then be measured. Since rodents will forget the original experiment at T1 within 4 hours, this test with a 24 h interval is a measure of strong cognitive enhancement.
This assay protocol can be modified in order to evaluate different phases of memory. There are three general phases of memory, namely, acquisition, consolidation and retrieval. In this modified protocol, the rats may be dosed with the candidate compound two hours before T1 and tested 24 h later without additional dosing. This is a test of the acquisition process. […]

C57BL/6 mice = assay: Haloperidol induced catalepsy model (bar grip test, step down latency); type: in vivo, mouse; settings: haloperidol 3 mg/Kg PO, male C57BL/6 mice, compound PO
Excerpt: Haloperidol Induced Catalepsy Model
To evaluate the potential beneficial effects to motor defects present in schizophrenics treated with typical and atypical antipsychotic agents and in Parkinson's disease patients, the compounds of the invention may be tested in a reversal of catalepsy model in which motor freezing, or catalepsy, is induced by potent dopamine D2 receptor antagonists such as haloperidol or risperidone. The method uses the “bar grip test”, in which the front paws of the mouse are placed so as to grip a 3 mm-diameter, suspended wooden bar. A “step down latency” is measured by recording the time until the mouse removes its paws from the wooden bar to the floor surface. Catalepsy is a freezing of the musculature that prevents the mouse from moving off the bar. […]
A catalepsy score is recorded for each mouse at 2, 3, 4, and 6 hours after administration of drugs. […] The latency until the mouse steps both paws down from the bar to the floor surface (i.e., step down latency) is recorded up to 120 sec. […] If none of the 10 attempts are beyond 10 sec, the longest duration recorded is used as the catalepsy score. Otherwise, the initial cataleptic duration (>10 sec) is recorded during the 120 sec testing time. Mean step down latency is calculated for each treatment group.

Work on CC(=O)c1ccc(Cn2nc3c(c2Nc2ccc(F)cc2)C(=O)N(C)C2=NC(C)(C)CN23)cc1 [Example 1, 7,8-Dihydro-2-(4-acetylbenzyl)-3-(4-fluorophenylamino)-5,7,7-trimethyl-[2H]-imidazo-[1,2-a]pyrazolo[4,3-e]pyrimidin-4(5H)-one] yielded a minimal effective dose (rats) of 0.1 mg/kg and a minimal effective dose (C57BL/6 mice) of 0.1 mg/kg.
